Test results as given in paper PMC5063506, “A Novel Class of Small Molecule Agonists with Preference for Human over Mouse TLR4 Activation” (PLoS ONE, 2016).

What was measured:
mouse TLR4/MD2 = target: T1, mouse TLR4/MD2 (Mus musculus, UniProt Q9JHF9+Q9QUK6); assay: mTLR4/MD2-HEK293 transfectant SEAP (QUANTI-Blue) dose response, AUC; type: cell-based; conditions: 1 μg/ml to 4 ng/ml, 24 h, SEAP OD 650 nm vs log concentration
T1 construct: host or cells: HEK293
T1 sequence (Q9QUK6 26-835): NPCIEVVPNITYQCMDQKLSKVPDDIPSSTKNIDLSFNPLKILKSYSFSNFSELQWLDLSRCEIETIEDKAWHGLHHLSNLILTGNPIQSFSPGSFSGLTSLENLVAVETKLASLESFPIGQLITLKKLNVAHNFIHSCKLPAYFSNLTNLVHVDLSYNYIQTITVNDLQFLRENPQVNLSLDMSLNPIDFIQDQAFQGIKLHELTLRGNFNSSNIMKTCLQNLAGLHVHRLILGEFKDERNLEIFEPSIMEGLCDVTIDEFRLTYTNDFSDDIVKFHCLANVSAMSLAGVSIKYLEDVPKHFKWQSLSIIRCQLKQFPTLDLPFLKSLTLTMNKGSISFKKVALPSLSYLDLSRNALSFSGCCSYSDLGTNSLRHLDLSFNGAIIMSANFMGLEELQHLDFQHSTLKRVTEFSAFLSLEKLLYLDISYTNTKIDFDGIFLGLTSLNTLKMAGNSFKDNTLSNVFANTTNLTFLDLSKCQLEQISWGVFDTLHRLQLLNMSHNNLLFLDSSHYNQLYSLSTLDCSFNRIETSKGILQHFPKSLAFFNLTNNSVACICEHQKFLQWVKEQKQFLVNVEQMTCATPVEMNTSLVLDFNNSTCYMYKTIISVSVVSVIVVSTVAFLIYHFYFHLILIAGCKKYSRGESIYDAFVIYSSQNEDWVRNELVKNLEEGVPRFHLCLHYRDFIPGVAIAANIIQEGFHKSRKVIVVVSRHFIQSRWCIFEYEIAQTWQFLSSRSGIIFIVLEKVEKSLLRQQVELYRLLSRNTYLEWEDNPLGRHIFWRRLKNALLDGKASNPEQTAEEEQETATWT
T1 sequence (Q9JHF9 19-160): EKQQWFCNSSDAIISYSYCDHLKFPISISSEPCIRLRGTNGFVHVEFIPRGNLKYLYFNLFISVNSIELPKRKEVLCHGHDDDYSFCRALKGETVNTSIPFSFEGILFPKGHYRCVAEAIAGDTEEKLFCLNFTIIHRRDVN
Experimental: (§1) Cells were seeded in tissue culture treated clear flat bottom polystyrene 96 well plates (Costar, 3598) at 1e4 cells/well. Concentration-response curves were generated by addition of test compounds and incubation for 20 h at 37°C in an atmosphere of 5% CO2. LPS (E. coli 0111:B4, Ultra-pure, Invivogen) or PHAD (Avanti Polar Lipids) was used as a positive control. The SEAP released was quantified using p nitrophenyl phosphate as a substrate, and the absorbance at 405 nm was measured at 30 second intervals over several minutes using a microplate reader. Some data are recorded as the pEC50, the negative log of the EC50 value. Other data generated from these reporter cell lines were converted to AUC (area under the curve) values by interpolation of fitted cubic spline curve between OD value and log concentration levels. The calculation is performed using MESS package in statistical software R (www.r-project.org/).
(§2) Fig 4 Ugi compounds preferentially activate TLR4-HEK transfectants expressing human MD2. A-B) HEK293 cells transfected with human TLR4/MD2 or mouse TLR4/MD2 (InVivogen) were stimulated with TLR4 agonists including MPL, PHAD, and Ugi compounds at 1 μg/ml to 4 ng/ml and with LPS at 25 ng/ml to 64 pg/ml for 24 h. SNs were analyzed for SEAP content by the QUANTI-Blue assay (InVivogen) and analysis at 650 nm by spectrophotometer. AUC (area under the curve) values were calculated as in Methods. No AUC value was calculated for LPS since it was utilized with a different dose range. C) HEK transfectants with cis- or trans-species expression of TLR4, MD2, and CD14 were stimulated with Ugi compounds in a dose response range of 9 μM to 1 nM or with LPS (boxes) at 75 ng/ml to 5 pg/ml for 48 h. Data was obtained as Vmax calculated over the initial linear portion of the kinetic absorbance measurements. The AUC (area under the curve) value for the dose response curve of Vmax vs log10 (molar units) was calculated for each compound using Trapezoidal rule. TEXT PRINTED IN THE PICTURE: (A) MPL: hTLR4-HEK AUC: 0.55 | (A) AZ617: hTLR4-HEK AUC: 5.90 | (A) AZ618: hTLR4-HEK AUC: 6.56 | (A) AZ839: hTLR4-HEK AUC: 6.00 | (A) AZ161: hTLR4-HEK AUC: 5.54 | (A) AZ902: hTLR4-HEK AUC: 7.04 | (A) GLA: hTLR4-HEK AUC: 3.75 | (B) MPL: mTLR4-HEK AUC: 13.27 | (B) AZ617: mTLR4-HEK AUC: 0.89 | (B) AZ618: mTLR4-HEK AUC: 1.03 | (B) AZ839: mTLR4-HEK AUC: 0.93 | (B) AZ161: mTLR4-HEK AUC: 0.99 | (B) AZ902: mTLR4-HEK AUC: 1.55 | (B) GLA: mTLR4-HEK AUC: 14.24

human TLR4/MD2 = target: T2, human TLR4/MD2 (Homo sapiens, UniProt O00206+Q9Y6Y9); assay: hTLR4/MD2-HEK293 transfectant SEAP (QUANTI-Blue) dose response, AUC; type: cell-based; conditions: 1 μg/ml to 4 ng/ml, 24 h, SEAP OD 650 nm vs log concentration
T2 construct: host or cells: HEK293
Experimental: as §1, §2

T2 sequence (O00206 24-839): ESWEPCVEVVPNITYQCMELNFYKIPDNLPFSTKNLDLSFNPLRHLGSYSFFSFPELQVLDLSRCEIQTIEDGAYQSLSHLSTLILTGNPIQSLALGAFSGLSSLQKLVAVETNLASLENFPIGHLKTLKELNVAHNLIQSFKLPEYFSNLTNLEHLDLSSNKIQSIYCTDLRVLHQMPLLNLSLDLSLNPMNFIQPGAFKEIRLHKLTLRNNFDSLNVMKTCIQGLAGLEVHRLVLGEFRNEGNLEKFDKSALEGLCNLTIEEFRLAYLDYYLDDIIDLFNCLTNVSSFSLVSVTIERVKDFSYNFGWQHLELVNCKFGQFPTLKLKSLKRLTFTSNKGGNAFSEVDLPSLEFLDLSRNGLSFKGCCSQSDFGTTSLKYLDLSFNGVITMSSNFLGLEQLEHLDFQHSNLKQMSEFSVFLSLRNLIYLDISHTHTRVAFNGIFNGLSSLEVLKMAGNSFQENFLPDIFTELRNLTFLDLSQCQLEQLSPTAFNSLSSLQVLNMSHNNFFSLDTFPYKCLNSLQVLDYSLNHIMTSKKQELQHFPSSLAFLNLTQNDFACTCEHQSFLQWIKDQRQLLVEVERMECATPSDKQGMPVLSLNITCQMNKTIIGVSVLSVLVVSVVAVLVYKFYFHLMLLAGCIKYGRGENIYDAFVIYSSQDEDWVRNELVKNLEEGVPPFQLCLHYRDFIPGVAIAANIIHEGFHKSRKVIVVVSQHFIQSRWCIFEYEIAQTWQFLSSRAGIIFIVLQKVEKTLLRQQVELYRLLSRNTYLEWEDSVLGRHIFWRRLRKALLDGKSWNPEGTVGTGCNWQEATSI
T2 sequence (Q9Y6Y9 19-160): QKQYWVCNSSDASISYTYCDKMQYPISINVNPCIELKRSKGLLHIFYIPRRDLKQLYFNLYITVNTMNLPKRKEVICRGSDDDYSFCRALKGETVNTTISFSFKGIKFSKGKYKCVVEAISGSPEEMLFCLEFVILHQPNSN

Compound | mTLR4-HEK AUC (mouse TLR4/MD2) | hTLR4-HEK AUC (human TLR4/MD2)
Cc1ccc(N(C(=O)c2cc(-c3ccccc3)n(-c3ccccc3)n2)C(C(=O)NC2CCCC2)c2ccc(CC(=O)O)cc2)cc1Cl (centres unmarked) [AZ161] | 0.99 | 5.54
O=C(O)Cc1ccc(C(C(=O)NC2CCCC2)N(C(=O)c2cc(-c3ccccc3)n(-c3ccccc3)n2)c2ccc3c(c2)CCC3)cc1 (centres unmarked) [AZ617] | 0.89 | 5.90
Cc1cc(C)cc(N(C(=O)c2cc(-c3ccccc3)n(-c3ccccc3)n2)C(C(=O)NC2CCCC2)c2ccc(CC(=O)O)cc2)c1 (centres unmarked) [AZ618, 2-(4-(2-(cyclopentylamino)-1-(N-(3,5-dimethylphenyl)-1,5-diphenyl-1H-pyrazole-3-carboxamido)-2-oxoethyl)phenyl)acetic acid] | 1.03 | 6.56
CC(C)(C)c1ccc(N(C(=O)c2cc(-c3ccccc3)n(-c3ccccc3)n2)C(C(=O)NC2CCCC2)c2ccc(CC(=O)O)cc2)cc1 (centres unmarked) [AZ902] | 1.55 | 7.04
